Patent publication US11058665B2, “Methods for treating brain metastasis” (MEMORIAL SLOAN-KETTERING CANCER CENTER, priority 2014, dated 2021)
Counter-ions that a name gives are not always drawn.

How the values were obtained:
[1] = system: unique stereoselective binding site in astrocytes; details: cited from earlier work
[2] = system: cortical spreading depression; details: gap-junction-mediated pathophysiological process; cited from earlier work
[3] = system: trigeminal ganglion neuronal-satellite cell signaling; details: animal models; cited from earlier work
[4] = system: MDA231-BrM2 cells as lung metastatic lesions; experiment: Lung colonization assay, MDA231-BrM2 cells, BLI; type: in vivo, mice; details: FIG. 15d; same treatment from day 1
Protocol: (§1) All experiments using animals were done in accordance to protocols approved by the MSKCC Institutional Animal Care and Use Committee. Athymic NCR nu/nu mice (NCI-Frederick), Cr:NIH bg-nu-xid mice (NCI-Frederick) and B6129SF1/J mice (Jackson Laboratory) were use at 5-6 weeks of age. For long-term brain metastasis assays we followed previously described procedures (Bos, Nguyen et al. 2010). In brief, 10^4 MDA231-BrM2 cells, 5×10^4 H2030-BrM3 cells, or 10^5 393N1 cells suspended in 100 μl of PBS were injected into the left cardiac ventricle. At the experimental endpoint, anesthetized mice (ketamine 100 mg/kg, xylazine 10 mg/kg) were injected retro-orbitally with D-luciferin (150 mg/kg), and brain colonization was quantified by ex vivo Bio-luminescent imaging (BLI). For short-term (7-day and 14-day) brain metastasis experiments, we injected 5×10^5 cells. TRITC dextran (70 KD) (Life Technologies) was intravenously injected to stain vascular structures. For inducible knockdown experiments, mice were given doxycycline hyclate (Sigma-Aldrich) in the drinking water (2 mg/mL) and the diet (Harlan) 14 days after injection of cancer cells. For lung colonization assays, 2×10^5 MDA231-BrM2 cells in 100 piL PBS were injected into the lateral tail vein. […] BLI was performed using an IVIS Spectrum Xenogen instrument (Caliper Life Sciences) and analysed using Living Image software, v. […]

[5] = system: gap junction dye transfer from astrocytes to MDA231-BrM2 cells; experiment: Dye transfer assay (calcein) from astrocytes to cancer cells, flow cytometry; type: cell-based, human; details: for dye transfer from astrocytes to cancer cells: MDA231-BrM2 cells, flow cytometry, FIG. 5a
Protocol: Dye Transfer and EdU Transfer Assays.
Monolayers of cancer cells or astrocytes were labeled with 2.5 gig/ml calcein Red-Orange AM dye (Life Technologies) at 37° C. for 30 min. Single cell suspensions were mixed at a ratio of 2:1 labeled:unlabeled cells for 6 h. Certain experiments used a mix of three cell populations, MDA231-BrM2 (GFP+), HBMEC (pre-labeled with Cell Proliferating Dye Fluor@670, eBioscience), and unlabeled astrocytes. Dye transfer was visualized by Zeiss LSM 5 Live confocal microscopy (20-min time-lapse) or quantified by FACSCalibur flow cytometry (BD Biosciences) at different time points. For DNA transfer assays, cancer cells were labeled overnight with EdU (10 μM, Molecular Probes) and maintained in culture for additional 3 days. Single cell suspensions of labeled cancer cells and astrocytes were mixed at 2:1 ratio for 6 h. EdU transfer was visualized using Zeiss LSM 5 Live confocal microscopy or quantified by FACSCalibur flow cytometry (BD Biosciences) following the manufacturer's instructions (Molecular Probes).

[6] = in vivo; cited from earlier work
[7] = cited from earlier work
[8] = system: MDA231-BrM2 cells, H2030-BrM3 cells, KRas/p53-393N1 cells (brain metastases); experiment: Brain metastasis assay, drug given daily from day 1 after arterial inoculation of cancer cells, BLI; type: in vivo; details: treated from day 1; MDA231-BrM2 or H2030-BrM3 in immunodeficient mice, KRas/p53-393N1 in immunocompetent mice; Tonabersat 10 mg/kg/day, meclofenamate 20 mg/kg/day i.p.
Protocol: as §1

[9] = system: MDA231-BrM2 cells as orthotopic tumours; experiment: Orthotopic tumour implantation in mammary fat pad, BLI; type: in vivo, mice; details: FIG. 15c, same treatment
Protocol: as §1

[10] = system: release of IFNα and TNFα in co-cultures of astrocytes and cancer cells; experiment: ELISA of IFNα and TNFα in conditioned media from MDA231-BrM2 cell and astrocyte co-cultures; type: cell-based, human; details: FIG. 5b
Protocol: Cancer Cell and Astrocyte Co-Culture Experiments.
Astrocytes and cancer cells were mixed at ratio of 1:1. For apoptosis assays, overnight co-cultures were treated with 500 ng/ml sFasL (Peprotech) in serum free media, 500 nM carboplatin (Sigma-Aldrich) or 25 nM Paclitaxel (Sigma-Aldrich) for 24 h. Single cell suspensions were stained with APC-conjugated cleaved caspase 3 antibody (Cell Signaling), apoptotic GFP+ cancer cells were detected by flow cytometery. For translating ribosome affinity purification (TRAP), EGFP-L10a expressing cancer cells were co-cultured with astrocytes for 24 h. Following previously published protocols, (Heiman, Schaefer et al. 2008, Zhang, Jin et al. 2013) mRNA purified from cancer cells were was used for library construction with TruSeq RNA Sample Prep Kit v2 (Illumina) following the manufacturer's instructions. Samples were barcoded and run on a Hiseq 2000 platform in a 50 bp/50 bp paired-end run, using the TruSeq SBS Kit v3 (Illumina). An average of 50 million paired reads were generated per sample. For conditioned media analysis, media were collected after 24 h, and cytokines in the conditioned media were either identified using Human Cytokine Array (R&D systems) or measured by IFNα or TNFα ELISA kits (R&D systems). To detect the activity of IFNα or TNFα in the collected conditioned media, cancer cells were treated with the collected conditioned media for 2 h and phosphorylation status of STAT1 or NF-κB p65 was determined by western blotting. For cGAMP and […] activation experiments, cancer cells and astrocytes were co-cultured for 18 h. The phosphorylation status of TBK1, IRF3 was determined by western immunoblotting. Nuclear translocation of IRF3 was determined by immunofluorescence staining with Zeiss LSM 5 Live confocal microscopy. cGAMP levels were determined by LC-MS/MS.

[11] = system: MDA231-BrM2 cells (brain metastatic lesions); experiment: Established brain metastasis treatment, starting 14 days after inoculation with MDA231-BrM2 cells, BLI; type: in vivo, mice; details: for progression of brain metastatic lesions (BLI): treatment from day 14, 35-day end point, Tonabersat 10 mg/kg, meclofenamate 20 mg/kg, carboplatin 50 mg/kg/5 days, FIG. 5h,i
Protocol: All experiments using animals were done in accordance to protocols approved by the MSKCC Institutional Animal Care and Use Committee. Athymic NCR nu/nu mice (NCI-Frederick), Cr:NIH bg-nu-xid mice (NCI-Frederick) and B6129SF1/J mice (Jackson Laboratory) were use at 5-6 weeks of age. For long-term brain metastasis assays we followed previously described procedures (Bos, Nguyen et al. 2010). In brief, 10^4 MDA231-BrM2 cells, 5×10^4 H2030-BrM3 cells, or 10^5 393N1 cells suspended in 100 μl of PBS were injected into the left cardiac ventricle. At the experimental endpoint, anesthetized mice (ketamine 100 mg/kg, xylazine 10 mg/kg) were injected retro-orbitally with D-luciferin (150 mg/kg), and brain colonization was quantified by ex vivo Bio-luminescent imaging (BLI). For short-term (7-day and 14-day) brain metastasis experiments, we injected 5×10^5 cells. TRITC dextran (70 KD) (Life Technologies) was intravenously injected to stain vascular structures. For inducible knockdown experiments, mice were given doxycycline hyclate (Sigma-Aldrich) in the drinking water (2 mg/mL) and the diet (Harlan) 14 days after injection of cancer cells. For lung colonization assays, 2×10^5 MDA231-BrM2 cells in 100 piL PBS were injected into the lateral tail vein. For orthotopic tumour implantation, 5×10^3 cells in 50 piL of 1:1 mix of PBS/growth factor reduced matrigel (BD Biosciences) were injected into the 4th right mammary fat pad of female mice. For drug treatment experiments, mice were intraperitoneally injected with carboplatin (Hospira) (50 mg/kg/5 days), Tonabersat (MedChem Express) (10 mg/kg/day), or meclofenamic acid sodium salt (Sigma-Aldrich) (20 mg/kg/day). Vehicle (10% DMSO in Polyethylene glycol 400) was used in control mice. BLI was performed using an IVIS Spectrum Xenogen instrument (Caliper Life Sciences) and analysed using Living Image software, v. 2.50. For brain metastasis assays, 8-10 mice were used in each group. For drug treatment experiments, mice were inoculated with cancer cells and randomly assigned to treatment groups. Gap junction modulators and chemotherapeutic agents were blindly administered in the MSKCC Antitumour Assessment Core.

[12] = system: Cx43 gap junction; details: cited from earlier work
[13] = after systemic administration; cited from earlier work
[14] = system: epileptogenesis; details: in vivo; cited from earlier work
[15] = system: brain metastases from breast or lung cancer; details: cited from earlier work

Structure (SMILES)	binding to site in astrocytes [1]	cortical spreading depression [2]	trigeminal ganglion neuronal-satellite cell signaling [3]	growth of MDA231-BrM2 cells as lung metastatic lesions [4]	dye transfer from astrocytes to cancer cells [5]	oral bioavailability [6]	tolerability and safety in patients with migraine ([7]; patients with migraine)	emergence of brain metastases (BLI) [8]	growth of MDA231-BrM2 cells as orthotopic tumours [9]	release of IFNα in co-cultures [10]	release of TNFα in co-cultures [10]	progression of brain metastatic lesions (BLI) [11]	Cx43 gap junction gating [12]	passage of the BBB [13]	epileptogenesis in animal models [14]	systemic tolerability ([7]; in vivo)	overall survival in patients with brain metastases [15]	brain metastasis (BLI) in inducible shRNA experiment ([11]; carboplatin alone 50 mg/kg/5 days starting on day 14, compared with depletion of Cx43 or PCDH7, FIG. 5f,g)	dye transfer from astrocytes to MDA231-BrM2 cells, compared with Cx43 depletion ([5]; Carbenoxolone 50 uM, FIG. 8b)
CC(=O)c1ccc2c(c1)[C@H](NC(=O)c1ccc(F)c(Cl)c1)[C@H](O)C(C)(C)O2 [Tonabersat]	binds to a unique stereoselective binding site in astrocytes	inhibits	inhibits	did not restrict growth	inhibited dye transfer	orally bioavailable	systemically well-tolerated and safe	prevented the emergence of brain metastases	did not restrict growth	inhibited	inhibited	significantly inhibited progression of metastatic lesions							
Cc1ccc(Cl)c(Nc2ccccc2C(=O)O)c1Cl [meclofenamate, meclofenamic acid sodium salt]				did not restrict growth	inhibited dye transfer	orally bioavailable		prevented the emergence of brain metastases	did not restrict growth	inhibited	inhibited	significantly inhibited progression of metastatic lesions	inhibits Cx43 gap junction gating	passes the BBB	inhibits epileptogenesis	well tolerated systemically			
N.N.O=C([O-])C1(C(=O)[O-])CCC1.[Pt+2] [carboplatin]												minimally inhibited brain metastasis growth		crosses the BBB			modest improvement in overall survival	inhibited brain metastasis to a similar extent as depletion of Cx43 or PCDH7	
CC1(C)[C@@H](OC(=O)CCC(=O)O)CC[C@]2(C)[C@H]3C(=O)C=C4[C@@H]5C[C@@](C)(C(=O)O)CC[C@]5(C)CC[C@@]4(C)[C@]3(C)CC[C@@H]12 [carbenoloxone, carbenoxolone]																			extent of dye-transfer inhibition after Cx43 depletion was comparable
